In brackets after ≈: the same amount, converted by molar mass. Structures can show the parent of a compound that is named as a salt. Where two headings read alike, the source gives them in different places.
Assays:
Rat L6 cells = experiment: Growth inhibition test of rat L6 cells; format: cell-based; settings: Table 2, unit inferred, 72 hours, read-out: Cytoxicity L6
Protocol: Rat derived-L6 cells (rat skeletal myoblast cell) were used. A medium, RPMI1640 medium was supplemented so that L-glutamin (200 mM) is 1%, and fetal bovine serum 10%, and the medium was cultured under CO2 concentration 5%, at 37° C.
The compounds of the present invention and the control drugs to be used in the test were dissolved in DMSO, to make a test solution of a predetermined concentration.
Pre-culture was conducted and medium containing cells which have entered the logarithmic growth phase was taken to wells of a 96-well culture plate. Then, a test solution containing drug of a predetermined concentration or a drug-free DMSO was added. Test solutions were taken by duplicates.
Culture plate was cultured for 72 hours in an incubator, to test the growth inhibition activity. Test was conducted as follows. 10 μL of Alamar Blue aqueous solution was added to each well, and the resultant was further cultured for 2 hours. Next, the culture plate was placed on a fluorescent micro-plate reader (Spectramax Gemeni XS; US Molecular Device), radiated at an excited wavelength of 536 nm. Fluorescent intensity was measured at 588 nm, and residual rate of L6 cells of the test solution added group, and that of the control was calculated.
Growth inhibition rate (%)={(C−A)/(B−A)}×100 • A: Primary cell count • B: cell count of control, 3 days after • C: cell count of wells added with a sample, 3 days after 4. Determination of Drug Efficacy Against Chloroquine Resistant-Plasmodium

Plasmodium falciparum K1 = experiment: Chloroquine resistant-Plasmodium falciparum growth inhibition screening test; format: cell-based; settings: for Selective toxicity: EC50 against rat L6 cells / EC50 against P. falciparum K1; for EC50: Plasmodium falciparum, Table 2, unit inferred, chloroquine-resistant K1 strain, read-out: P. falciparum K1
Protocol: In the present experiment, protozoa of plasmodium falsiparum K1 strain was used. RPMI-1640 medium sterilized with a filter to which human serum was added to be 5%, was used in the experiment. Malarial parasites were cultured under 3% O2 concentration, 4% CO2 concentration, 93% N2 concentration, and at a temperature of 37° C.
The compounds of the present invention to be used in the present test and the positive control drug (chloroquine) were dissolved in DMSO to make a test solution of a predetermined concentration. Cultured malaria parasite infected-erythrocytes were collected by centrifugation, and diluted with non-infected erythrocyte so that the early infection rate was 0.15%. Hematocrit level at that time was 2.5%.
200 μL of malaria infected solution was added to wells of a 96-well culture plate, and adjusted by adding a test solution containing drug of a predetermined concentration or a drug-free DMSO. Test solutions were taken by duplicates.
[…] […] Radiation intensity was measured with a beta plate liquid scintillation counter (Wallac), and malarial parasite infection rates of the test solution added group and the control group were calculated.
Growth inhibition rate (%)={1−(b−a)/(c−a)}×100 • a: early infection rate • b: infection rate when test solution was added • c: infection rate of the control 3. Growth Inhibition Test of Rat L6 Cells
Antimalarial activity of a sample was estimated from EC50 values of the sample against chloroquine resistant-Plasmodium falciparum and rat L6 cells. […] It means that the larger the value of the selection toxity, the less the risk of the side effect is. Chemotherapy index=(EC50 value of a sample against rat L6 cells)/(EC50 value of a sample against chloroquine resistant-Plasmodium falsiparum)

[1] = system: Plasmodium berghei NK65 strain; experiment: Cure test by oral administration to mice infected with malaria; format: in vivo; settings: for inhibition in vivo at 100 mg/kg: Plasmodium berghei; for Days of survival: mean days to death minus that of control mice; for Effectiveness in the in vivo malaria test, in words: oral administration to mice infected with rodent malaria
Protocol: In this experiment, rodent malaria parasites (the Plasmodium berghei NK65 strain) were used.
The infected blood to be used was subcultured in ICR female SPF mice infected by intraperitoneal or tail vein administration at 4 to 6 weeks old (20 to 26 g). […] Thereafter, based on the number of red cells (cells/ml) and the rate of infection by the protozoans, the blood was diluted with phys'iological saline such that a density of […] malaria parasites/1 ml dose was attained. This was used for infection of uninfected mice (ICR female mice, 5 weeks old) in an amount of 0.2 ml/20 g body weight, through the tail vein (Day-0). The compound used in the test was dissolved in 10% DMSO solution (a mixture of 1 ml of DMSO and 9 ml of 5% glucose solution).
Each group contained 4 mice, and the compound was orally administered to the mice 24 hours after their infection with malaria (Day-1), in an amount calculated such that 100 mg of the compound was administered per 1 kg of the body weight of a mouse. On the other hand, in terms of cases in which the amount was calculated such that 30 mg of the compound was administered per 1 kg of the body weight of a mouse, the oral administration was carried out a total of three times, that is, 24 hours (Day-1), 48 hours (Day-2) and 72 hours (Day-3) after the infection of malaria.
Blood was collected from the tails of each mouse 96 hours (Day-4) and 144 hours (Day-6) after the infection with malaria, and thin blood films were prepared. Under the microscope, the numbers of infection of malaria parasites in the group to which the compound was administered and the control group (to which the compound was not administered) were measured, and the rates of infection with malaria parasites (Parasitemia) were calculated.
From the rate of infection with malaria parasites calculated as above, the cure rate (Suppression) in the case of administration of the drug was calculated according to the following equation. Cure rate: Suppression (%)=(B−A)/B×100
A: Rate of infection with the protozoans in a mouse to which the present test compound was administered
B: Rate of infection with the parasites in a control mouse (to which the compound was not administered) Days of survival: MSD (day)=C−D
C: the average number of days from the date of infection with malaria to the date of death in the mice to which the present test compound was administered
D: The average number of days from the date of infection with malaria to the date of death in the 4 individuals of control mice (to which the compound was not administered)
Further, by observation of changes in the body weight, hair glossiness and the like of each mouse, side effects such as acute toxicity due to administration of the compound were evaluated.

[2] = 96 h, oral, 100 mg/kg, 1 dose, infected ICR mice, suppression vs control, read-out: Cure rate (%) Day-4
[3] = 144 h, oral, 100 mg/kg, 1 dose, infected ICR mice, suppression vs control, read-out: Cure rate (%) Day-6
[4] = po, 96 h, read-out: Cure rate (%) Day-4
[5] = po, 144 h, read-out: Cure rate (%) Day-6

`CCN(CC)c1cc(C)c2c(c1)OC1=CC(Nc3ccccn3)c3ccccc3C1=N2` (stereo not shown) (as salt: HCl) [Compound 1a, N,N-Diethyl-11-methyl-5-(pyridin-2-ylamino)-5H-benzo[a]phenoxazin-9-amine] showed a melting point of 167.2 to 168.4 °C.
Work on `CCN(CC)c1cc(C)c2c(c1)OC1=CC(Nc3cccnc3)c3ccccc3C1=N2` (stereo not shown) (as salt: HCl) [Compound 1b, N,N-Diethyl-11methyl-5-(pyridin-3-ylamino)-5H-benzo[a]phenoxazin-9-amine] yielded a melting point of 161.6 to 163.1 °C.
For `CCN(CC)c1cc(C)c2c(c1)OC1=CC(Nc3ccncc3)c3ccccc3C1=N2` (stereo not shown) (as salt: HCl) [Compound 1c, N,N-Diethyl-11-methyl-5-(pyridin-4-ylamino)-5H-benzo[a]phenoxazin-9-amine], the melting point was > 300 °C.
`CCCN(CCC)c1ccc2nc3c4ccccc4c(=Nc4ccncc4)cc-3oc2c1` [Compound 1D, N,N-Dipropyl-5-(pyridin-4-ylimino)-5H-benzo[a]phenoxazin-9-amine] showed a melting point of 215 to 216 °C.
With `CCCCN(CCCC)c1ccc2nc3c4ccccc4c(=Nc4ccncc4)cc-3oc2c1` [Compound 1E, N,N-Dibutyl-5-(pyridin-4-ylimino)-5H-benzo[a]phenoxazin-9-amine] the melting point was 188 to 189 °C.
For `CCN(CC)c1ccc2nc3c4ccc(Br)cc4c(=Nc4ccccn4)cc-3oc2c1` [Compound 1F, 3-Bromo-N,N-diethyl-5-(pyridin-2-ylimino)-5H-benzo[a]phenoxazin-9-amine], the melting point was 204 to 205 °C.
For `CCN(CC)c1ccc2nc3c4ccccc4c(=Nc4cccnc4)cc-3oc2c1` [Compound 1N, N,N-Diethyl-5-(pyridin-3-ylimino)-5H-benzo[a]phenoxazin-9-amine], the EC50 (Rat L6 cells) was 46.1 µg/mL (≈ 117 µM), the Selective toxicity (Plasmodium falciparum K1) was 5123 and the EC50 (Plasmodium falciparum K1) was 0.009 µg/mL (≈ 0.0228 µM). The inhibition in vivo at 100 mg/kg [1, 2] was 41%, the inhibition in vivo at 100 mg/kg [1, 3] was 0% and the “Days of survival” value ([1]; oral, 100 mg/kg, 1 dose) was 0 days.
Compound `c1ccc(/N=c2/cc3oc4cc(N5CCOCC5)ccc4nc-3c3ccccc23)nc1` [Compound 1O, N-(9-Morphlino-5H-benzo[a]phenoxazin-5-ylidene)pyridin-2-amine] has an EC50 (Rat L6 cells) of 20.8 µg/mL (≈ 50.9 µM), a Selective toxicity (Plasmodium falciparum K1) of 1386 and an EC50 (Plasmodium falciparum K1) of 0.015 µg/mL (≈ 0.0367 µM). The inhibition in vivo at 100 mg/kg [1, 2] was 81%, the inhibition in vivo at 100 mg/kg [1, 3] was 60% and the “Days of survival” value ([1]; oral, 100 mg/kg, 1 dose) was 0.6 days.
`CCN(CC)c1ccc2nc3c4ccccc4c(=Nc4cc(C)nc5ccccc45)cc-3oc2c1` [Compound 1P, N,N-Diethyl-5-(2-methylquinoline-4-ylimino)-5H-benzo[a]phenoxazin-9-amine] showed an EC50 (Rat L6 cells) of 6.6 µg/mL (≈ 14.4 µM), a melting point of 229 to 230 °C and a Selective toxicity (Plasmodium falciparum K1) of 183. The EC50 (Plasmodium falciparum K1) was 0.036 µg/mL (≈ 0.0785 µM).
`CCOC(=O)C(Cc1ccc(O)cc1)N=c1cc2oc3cc(N(CC)CC)ccc3nc-2c2ccccc12` (stereo not shown) [Compound 1Q, Ethyl 2-[9-(Diethylamino)-5H-benzo[a]phenoxazin-5-ylideneamino]-3-(4-hydroxyphenyl)propanoate] gave an EC50 (Rat L6 cells) of 33.8 µg/mL (≈ 66.3 µM), a melting point of 175 to 181 °C and a Selective toxicity (Plasmodium falciparum K1) of 751. It also gave an EC50 (Plasmodium falciparum K1) of 0.045 µg/mL (≈ 0.0883 µM).
In the case of `CCN(CCNS(C)(=O)=O)c1cc(C)c2nc3c4ccccc4c(=Nc4cccnc4)cc-3oc2c1` [Compound 1T, N-Ethyl-N-(2-methansulfonamidylethyl)-11-methyl-5-(pyridine-3-ylimino)-5H-benzo[a]phenoxazin-9-amine], the EC50 (Rat L6 cells) is reported as 23.9 µg/mL (≈ 47.7 µM), the Selective toxicity (Plasmodium falciparum K1) is reported as 2988 and the EC50 (Plasmodium falciparum K1) is reported as 0.008 µg/mL (≈ 0.0159 µM). The inhibition in vivo at 100 mg/kg [1, 2] was 96.5%, the inhibition in vivo at 100 mg/kg [1, 3] was 79.4% and the “Effectiveness in the in vivo malaria test, in words” value (“Effectiveness” for short) [1] was “excellent cure effects”. The “Days of survival” value ([1]; oral, 100 mg/kg, 1 dose) was 13.3 days.
In the case of `CCN(CC)c1ccc2nc3c4ccccc4/c(=N\c4ccccc4)cc-3oc2c1` [Compound 1U, reference compound], the inhibition in vivo at 100 mg/kg [1, 4] is reported as 0%, the inhibition in vivo at 100 mg/kg [1, 5] is reported as 16.8% and the “Effectiveness” value [1] is reported as “effectiveness was hardly observed”. For the same compound, the “Days of survival” value ([1]; oral, 100 mg/kg, 1 dose) was 0.8 days.
With `CCN(CC)c1ccc2nc3c4ccccc4/c(=N\c4ccc(C)cc4)cc-3oc2c1` [Compound 1V, reference compound] the inhibition in vivo at 100 mg/kg [1, 4] was 0%, the inhibition in vivo at 100 mg/kg [1, 5] was 11.4% and the “Effectiveness” value [1] was “effectiveness was hardly observed”. The “Days of survival” value ([1]; oral, 100 mg/kg, 1 dose) was 0.8 days.
In the case of `c1ccc2c(=Nc3ccncc3)cc3oc4cc(N5CCOCC5)ccc4nc-3c2c1` [Compound 1e, 9-Morpholino-5-(pyridin-4-ylimino)-5H-benzo[a]phenoxazine], the melting point is reported as > 300 °C.
Work on `c1ccc2c(=Nc3ccncc3)cc3oc4cc(N5CCCCC5)ccc4nc-3c2c1` [Compound 1f, 9-(Piperidin-1-yl)-5-(pyridin-4-ylimino)-5H-benzo[a]phenoxazine] yielded a melting point of 266.8 to 268.2 °C.
With `CCN(CC)c1ccc2nc3c(cc(N)c4ccccc43)[o+]c2c1` [Nile blue A, reference compound] the inhibition in vivo at 100 mg/kg [1, 2] was 15%, the inhibition in vivo at 100 mg/kg [1, 3] was 5% and the “Effectiveness” value [1] was “did not show effectiveness”. For the same compound, the “Days of survival” value ([1]; oral, 100 mg/kg, 1 dose) was 0.3 days.
For `CCN(CC)c1ccc2nc3c4ccccc4c(=O)cc-3oc2c1` [Nile red, reference compound], the inhibition in vivo at 100 mg/kg [1, 2] was 16%, the inhibition in vivo at 100 mg/kg [1, 3] was 3% and the “Effectiveness” value [1] was “did not show effectiveness”. For the same compound, the “Days of survival” value ([1]; oral, 100 mg/kg, 1 dose) was 0 days.
For `CCNc1cc2[o+]c3cc(NCC)c4ccccc4c3nc2cc1C` [Oxazin 170 perchlorate, reference compound], the inhibition in vivo at 100 mg/kg [1, 2] was 40%, the inhibition in vivo at 100 mg/kg [1, 3] was 57% and the “Effectiveness” value [1] was “did not show effectiveness”. For the same compound, the “Days of survival” value ([1]; oral, 100 mg/kg, 1 dose) was 1.3 days.

— patent US8288374B2, “Medicinal composition containing benzo[a]phenoxazine compound as the active ingredient for prevention or treatment of protozoal disease” (Hoshi University, priority 2008, dated 2012)
